From US20130177531A1, “Inhibitors of Serine Proteases” (Vertex Pharmaceuticals Incorporated, priority 2005, published 2013)

Legend:
in vivo = details: male, Sprague-Dawley, rat, iv
Experimental: The intravenous pharmacokinetics of compounds of formula I were evaluated in rats and dogs. A group of 3 male Sprague-Dawley rats weighing between 250 to 300 g was administered an intravenous bolus dose of 0.95 mg/kg of an S-diastereomer of formula I, in a vehicle consisting of 15% ethanol, 10% dimethyl isosorbide, 35% PEG400 and 40% D5W (5% dextrose in water). Serial blood samples were collected in heparinized tubes at 0 (pre-dose), 0.083, 0.167, 0.25, 0.5, 1, 1.5, 2, 3, 4, 6, and 8 h, post-dose administration. […] For oral studies in rats and dogs, an S-diastereomer compound of formula I was formulated in polyvinylpyrrolidone (PVP) K30 plus 2% sodium lauryl sulfate and then dosed as an oral gavage. A group of 3 male Sprague-Dawley rats (250 to 300 g, Harlan, Md.) was dosed orally with 40 mg/kg of the compound, and a group of 3 male Beagle dogs (10.9-12.0 kg) was administered an oral dose of 13.2 mg/kg of the compound. In both oral studies, blood samples were taken at pre-dose, 0.25, 0.5, 1, 1.5, 2, 3, 4, 6, 8, 12, and 24 h following dose administration. […] Samples obtained from the rat intravenous study were subjected to a chiral liquid chromatography/mass spectrometry (LC/MS/MS) analysis, while samples of all other studies were analyzed using a non-chiral LC/MS/MS method. […]

[1] = Oral bioavailability and isomer interconversion of R and S isomers at C* in rats; parameters: species or system male Sprague Dawley rats; details: rat; for bioavailability / half-life: 30 mg/kg
Experimental: Three groups of male Sprague Dawley rats (n=6-7/group) were orally administered a compound of formula I wherein the mixture comprised about 92% R isomer at position C* and about 8% S isomer at position C*; a mixture that was about 7% R isomer at position C* and about 93% S isomer at position C*; or a compound of formula I wherein the mixture was about 54% R isomer at position C* and about 46% S isomer at position C*; at a nominal dose of 30 mg/kg. Serial blood samples were collected up to 24 hours (hr) post dose. Derived plasma samples (100 μL) were acidified by the addition of 5 μL of formic acid to prevent in vitro interconversion. The determination of concentrations of both the R isomer and the S isomer, at position C*, in plasma and in dose solutions was conducted using a chiral liquid chromatography/mass spectrometry (LC/MS/MS, e.g., LC/tandem mass spectroscopy) method. The formulations of the solid dispersions containing either 10% of the R:S mixture, the R isomer, or the S isomer were prepared according to Table 4. […] The sodium lauryl sulfate and PVP were added to the flask containing the drug solution and were then mixed until dissolved. The mixtures were dried under Roto-vap for about 15 min. After a dry powder was obtained, the solid was then scraped from the flask and transferred to a glass container. The solid was dried for 24 hr at 55° C. in a vacuum oven with nitrogen bleed. The dry solid was then milled by mortar and pestle and was stored in a tightly capped vial. […] Male Sprague Dawley rats (Charles River Laboratories, Kingston, R.I.; n=6-7/group) were used in the study. The day before dosing, the rats were cannulated in the carotid artery for collecting blood samples. […] The experiments were performed with a parallel study design as 6 separate single dose studies as described in Table 5. […] The blood samples were collected in tubes containing potassium EDTA and were centrifuged to plasma within 15 min of collection. A diluted solution of formic acid was prepared by diluting 1 mL of formic acid with 9 mL of water. A total of 5 micro liters (μL) of this diluted formic acid was placed into each plasma tube. An aliquot of plasma (100 μL per tube) was placed into appropriately labeled tubes containing the formic acid, and the acidified plasma was stored frozen at −70° C. until analysis. The acidification step was implemented to prevent in vitro interconversion. Referring to Table 6, several bioavailability parameters for compounds undergoing reversible metabolism could be estimated by the following descriptions.

In the case of `CCC[C@H](NC(=O)[C@@H]1[C@H]2CCC[C@H]2CN1C(=O)[C@@H](NC(=O)[C@@H](NC(=O)c1cnccn1)C1CCCCC1)C(C)(C)C)C(=O)C(=O)NC1CC1` [S isomer at C*, (1S,3aR,6aS)-2-[(2S)-2-[[(2S)-2-cyclohexyl-1-oxo-2-[(pyrazinylcarbonyl)amino]ethyl]amino]-3,3-dimethyl-1-oxobutyl]-N-[(1S)-1-[2-(cyclopropylamino)-1,2-dioxoethyl]butyl]octahydro-cyclopenta[c]pyrrole-1-carboxamide], the half-life (in vivo) is reported as 1.73 h, the DN AUCINF of the S isomer ([1]; male, Sprague Dawley, in vivo) is reported as 140 ng·h/mL and the “mean (±SD) Tmax for the S isomer” value ([1]; male, Sprague Dawley, in vivo) is reported as 2.52 (±2.19) hr. For the same molecule, the bioavailability ([1]; male, Sprague Dawley, in vivo) was 42.9% and the half-life ([1]; male, Sprague Dawley, in vivo) was 3.6 h.

In the case of `CCC[C@@H](NC(=O)[C@@H]1[C@H]2CCC[C@H]2CN1C(=O)[C@@H](NC(=O)[C@@H](NC(=O)c1cnccn1)C1CCCCC1)C(C)(C)C)C(=O)C(=O)NC1CC1` [R isomer at C*, (1S,3aR,6aS)-2-[(2S)-2-[[(2S)-2-cyclohexyl-1-oxo-2-[(pyrazinylcarbonyl)amino]ethyl]amino]-3,3-dimethyl-1-oxobutyl]-N-[(1R)-1-[2-(cyclopropylamino)-1,2-dioxoethyl]butyl]octahydro-cyclopenta[c]pyrrole-1-carboxamide], the half-life (in vivo) is reported as 0.75 h, the “FR+SR, estimated total bioavailability based on combined exposure to the R and S isomers following a dose of the R isomer” value ([1]; male, Sprague Dawley, in vivo) is reported as “about 98%” and the “mean (±SD) Tmax for the R isomer” value ([1]; male, Sprague Dawley, in vivo) is reported as 2.11 (−1.24) hr. For the same molecule, the bioavailability ([1]; male, Sprague Dawley, in vivo) was 80.6%, the half-life ([1]; male, Sprague Dawley, in vivo) was 2.18 h and the “in vivo isomer conversion at position C* (R to S versus S to R)” value [1] was “more prominent”.
